Assay results published in ChEMBL document CHEMBL1201862, “PubChem BioAssay data set” (2004).
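1) Cells in 96-well plates. 2) Compound, 48 h, 5 concentrations. 3) Linear interpolation between surrounding doses. 4) Unreached endpoint = highest concentration. At the GI50, growth is halved.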 Active and inactive are the calls of the source. Cut-off read from the data, not from the text of the source: active = GI50 up to about 1.1 µM and inactive = higher.

Key:
Assay in all cases: NCI anticancer screen, dose series, 48 h
[1] = test system: A498
[2] = test system: A549
[3] = test system: ACHN
[4] = test system: CCRF-CEM
[5] = test system: COLO 205
[6] = test system: DLD-1
[7] = test system: DMS-114
[8] = test system: DMS-273
[9] = test system: EKVX
[10] = test system: HCC 2998
[11] = test system: HCT-116
[12] = test system: HCT-15
[13] = test system: HL-60
[14] = test system: HOP-62
[15] = test system: HOP-92
[16] = test system: HT-29
[17] = test system: IGROV-1
[18] = test system: K562
[19] = test system: KM-20L2
[20] = test system: KM12
[21] = test system: LOX IMVI
[22] = test system: LXFL 529
[23] = test system: M14
[24] = test system: M19-MEL
[25] = test system: MOLT-4
[26] = test system: Malme-3M
[27] = test system: NCI-H226
[28] = test system: NCI-H23
[29] = test system: NCI-H460
[30] = test system: NCI-H522
[31] = test system: OVCAR-3
[32] = test system: OVCAR-4
[33] = test system: OVCAR-5
[34] = test system: OVCAR-8
[35] = test system: RXF 393
[36] = test system: SF-268
[37] = test system: SF-295
[38] = test system: SF-539
[39] = test system: SK-MEL-28
[40] = test system: SK-MEL-2
[41] = test system: SK-MEL-5
[42] = test system: SK-OV-3
[43] = test system: SN12C
[44] = test system: SNB-19
[45] = test system: SNB-75
[46] = test system: SNB-78
[47] = test system: SR
[48] = test system: SW-620
[49] = test system: TK-10
[50] = test system: U-251
[51] = test system: UACC-257
[52] = test system: UACC-62
[53] = test system: XF498
[54] = test system: CAKI-1
[55] = test system: RPMI-8226
[56] = test system: UO-31
[57] = test system: HOP-18

Nc1nc(SCCC/C=C/I)nc2c1ncn2C1OC(COP(=O)(O)O)C(O)C1O (configuration not stated)
GI50 [1]: > 100 µM (inactive) | GI50 [2]: > 100 µM (inactive) | GI50 [3]: > 100 µM (inactive) | GI50 [4]: > 100 µM (inactive) | GI50 [5]: > 100 µM (inactive) | GI50 [6]: > 100 µM (inactive) | GI50 [7]: > 100 µM (inactive) | GI50 [8]: > 100 µM (inactive) | GI50 [9]: > 100 µM (inactive) | GI50 [10]: > 100 µM (inactive) | GI50 [11]: > 100 µM (inactive) | GI50 [12]: > 100 µM | GI50 [13]: > 100 µM (inactive) | GI50 [14]: > 100 µM (inactive) | GI50 [15]: > 100 µM (inactive) | GI50 [16]: > 100 µM (inactive) | GI50 [17]: > 100 µM (inactive) | GI50 [18]: > 100 µM (inactive) | GI50 [19]: > 100 µM (inactive) | GI50 [20]: > 100 µM (inactive) | GI50 [21]: > 100 µM (inactive) | GI50 [22]: > 100 µM (inactive) | GI50 [23]: > 100 µM (inactive) | GI50 [24]: > 100 µM (inactive) | GI50 [25]: > 100 µM (inactive) | GI50 [26]: > 100 µM (inactive) | GI50 [27]: > 100 µM (inactive) | GI50 [28]: > 100 µM (inactive) | GI50 [29]: > 100 µM (inactive) | GI50 [30]: > 100 µM (inactive) | GI50 [31]: > 100 µM (inactive) | GI50 [32]: > 100 µM (inactive) | GI50 [33]: > 100 µM (inactive) | GI50 [34]: > 100 µM (inactive) | GI50 [35]: > 100 µM (inactive) | GI50 [36]: > 100 µM (inactive) | GI50 [37]: > 100 µM (inactive) | GI50 [38]: > 100 µM (inactive) | GI50 [39]: > 100 µM (inactive) | GI50 [40]: > 100 µM (inactive) | GI50 [41]: > 100 µM (inactive) | GI50 [42]: > 100 µM (inactive) | GI50 [43]: > 100 µM (inactive) | GI50 [44]: > 100 µM (inactive) | GI50 [45]: > 100 µM (inactive) | GI50 [46]: > 100 µM (inactive) | GI50 [47]: > 100 µM (inactive) | GI50 [48]: > 100 µM (inactive) | GI50 [49]: > 100 µM (inactive) | GI50 [50]: > 100 µM (inactive) | GI50 [51]: > 100 µM (inactive) | GI50 [52]: > 100 µM (inactive) | GI50 [53]: > 100 µM (inactive)

Cn1c(=O)c2nc(NCCO)cnc2n(C)c1=O
GI50 [1]: > 100 µM (inactive) | GI50 [2]: > 100 µM (inactive) | GI50 [3]: > 100 µM (inactive) | GI50 [54]: 95.5 µM (inactive) | GI50 [4]: > 100 µM (inactive) | GI50 [5]: > 100 µM (inactive) | GI50 [6]: > 100 µM (inactive) | GI50 [7]: 64.1 µM (inactive) | GI50 [8]: 53.6 µM (inactive) | GI50 [9]: > 100 µM (inactive) | GI50 [10]: 64.6 µM (inactive) | GI50 [11]: 62.8 µM (inactive) | GI50 [12]: 85.9 µM | GI50 [13]: 27.2 µM (inactive) | GI50 [14]: 71.1 µM (inactive) | GI50 [15]: > 100 µM (inactive) | GI50 [16]: > 100 µM (inactive) | GI50 [17]: > 100 µM (inactive) | GI50 [18]: 44.2 µM (inactive) | GI50 [19]: > 100 µM (inactive) | GI50 [20]: 27.2 µM (inactive) | GI50 [22]: 36.5 µM (inactive) | GI50 [23]: 68.2 µM (inactive) | GI50 [24]: 56.5 µM (inactive) | GI50 [25]: > 100 µM (inactive) | GI50 [26]: 44.7 µM (inactive) | GI50 [28]: > 100 µM (inactive) | GI50 [29]: 59.7 µM (inactive) | GI50 [30]: 21.5 µM (inactive) | GI50 [31]: 23.3 µM (inactive) | GI50 [32]: 62.7 µM (inactive) | GI50 [33]: > 100 µM (inactive) | GI50 [34]: > 100 µM (inactive) | GI50 [55]: 66.4 µM (inactive) | GI50 [35]: 35.6 µM (inactive) | GI50 [36]: > 100 µM (inactive) | GI50 [37]: 45.3 µM (inactive) | GI50 [38]: 31.8 µM (inactive) | GI50 [39]: > 100 µM (inactive) | GI50 [40]: 26.6 µM (inactive) | GI50 [41]: > 100 µM (inactive) | GI50 [42]: > 100 µM (inactive) | GI50 [43]: > 100 µM (inactive) | GI50 [44]: > 100 µM (inactive) | GI50 [45]: 8.73 µM (inactive) | GI50 [46]: > 100 µM (inactive) | GI50 [47]: 42.8 µM (inactive) | GI50 [48]: 55.6 µM (inactive) | GI50 [49]: > 100 µM (inactive) | GI50 [50]: 32.9 µM (inactive) | GI50 [51]: > 100 µM (inactive) | GI50 [52]: 37.8 µM (inactive) | GI50 [56]: 48.9 µM (inactive) | GI50 [53]: 38.9 µM (inactive)

Nc1c(C(=O)N/N=C/c2ccccc2)sc(=S)n1-c1ccccc1
GI50 [2]: > 100 µM (inactive) | GI50 [3]: > 100 µM (inactive) | GI50 [4]: > 100 µM (inactive) | GI50 [5]: > 100 µM (inactive) | GI50 [6]: > 100 µM (inactive) | GI50 [10]: > 100 µM (inactive) | GI50 [11]: > 100 µM (inactive) | GI50 [13]: > 100 µM (inactive) | GI50 [57]: > 100 µM (inactive) | GI50 [14]: > 100 µM (inactive) | GI50 [15]: > 100 µM (inactive) | GI50 [16]: > 100 µM (inactive) | GI50 [17]: > 100 µM (inactive) | GI50 [18]: 3.38 µM (inactive) | GI50 [20]: > 100 µM (inactive) | GI50 [22]: > 100 µM (inactive) | GI50 [24]: > 100 µM (inactive) | GI50 [25]: > 100 µM (inactive) | GI50 [27]: > 100 µM (inactive) | GI50 [28]: > 100 µM (inactive) | GI50 [29]: > 100 µM (inactive) | GI50 [30]: > 100 µM (inactive) | GI50 [31]: > 100 µM (inactive) | GI50 [34]: > 100 µM (inactive) | GI50 [55]: > 100 µM (inactive) | GI50 [36]: > 100 µM (inactive) | GI50 [37]: > 100 µM (inactive) | GI50 [38]: 70 µM (inactive) | GI50 [39]: > 100 µM (inactive) | GI50 [41]: > 100 µM (inactive) | GI50 [42]: > 100 µM (inactive) | GI50 [44]: > 100 µM (inactive) | GI50 [45]: 8.71 µM (inactive) | GI50 [47]: > 100 µM (inactive) | GI50 [48]: > 100 µM (inactive) | GI50 [49]: > 100 µM (inactive) | GI50 [50]: > 100 µM (inactive) | GI50 [51]: > 100 µM (inactive) | GI50 [52]: > 100 µM (inactive) | GI50 [56]: > 100 µM (inactive)
